# Target: T1, human NK1 receptor (Homo sapiens, UniProt P25103)
# T1 construct: expressed in transfected cells; host or cells: CHO cells infected using the Semliki virus expression system; membrane suspension
# Experiment: Affinity for the NK1 receptor, [3H]substance P displacement binding assay
# Settings: affinity to the NK-1 receptor; human NK1 receptors in CHO cells; [3H]substance P 0.6 nM; 60 min at room temperature
# Method: The affinity of test compounds for the NK1 receptor was evaluated at human NK1 receptors in CHO cells infected with the human NK1 receptor (using the Semliki virus expression system) and radiolabelled with [^3H]substance P (final concentration 0.6 nM). Binding assays were performed in HEPES buffer (50 mM, pH 7.4) containing BSA (0.04%) leupeptin (8 μg/ml), MnCl2 (3 mM) and phosphoramidon (2 μM). Binding assays consisted of 250 μl of membrane suspension (1.25×10^5 cells/assay tube), […] of displacing agent and 125 μl of [^3H]substance P. Displacement curves were determined with at least seven concentrations of the compound. The assay tubes were incubated for 60 min at room temperature after which time the tube contents were rapidly filtered under vacuum through GF/C filters presoaked for 60 min with PEI (0.3%) with 2×2 ml washes of HEPES buffer (50 mM, pH 7.4). The radioactivity retained on the filters was measured by scintillation counting. All assays were performed in triplicate in at least 2 separate experiments.
# T1 sequence (P25103 whole entry): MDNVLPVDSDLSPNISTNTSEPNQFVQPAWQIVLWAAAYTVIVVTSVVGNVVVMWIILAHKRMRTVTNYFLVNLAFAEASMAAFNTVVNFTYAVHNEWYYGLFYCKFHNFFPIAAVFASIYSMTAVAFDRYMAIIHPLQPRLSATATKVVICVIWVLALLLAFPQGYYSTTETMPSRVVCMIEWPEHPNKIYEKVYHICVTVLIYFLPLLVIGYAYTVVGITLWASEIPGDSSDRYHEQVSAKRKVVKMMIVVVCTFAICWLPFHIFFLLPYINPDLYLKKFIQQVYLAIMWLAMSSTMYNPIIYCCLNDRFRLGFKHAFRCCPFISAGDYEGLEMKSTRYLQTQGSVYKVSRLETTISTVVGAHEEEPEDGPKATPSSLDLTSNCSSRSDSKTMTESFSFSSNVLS
Compound,Ki [nM],pKi
"CSc1ncc(C(=O)N(C)Cc2cc(C(F)(F)F)cc(C(F)(F)F)c2)c(Oc2ccccc2C)n1 [Example 1, 2-Methylsulfanyl-4-o-tolyloxy-pyrimidine-5-carboxylic acid (3,5-bis-trifluoromethyl-benzyl)-methyl-amide]",41.7,–
"CSc1ncc(C(=O)N(C)Cc2cc(C(F)(F)F)cc(C(F)(F)F)c2)c(Oc2ccccc2)n1 [Example 23, 2-Methylsulfanyl-4-phenoxy-pyrimidine-5-carboxylic acid (3,5-bis-trifluoromethyl-benzyl)-methyl-amide]",97.7,–
"Cc1cc(C)cc(CN(C)C(=O)c2cnc(N3CCN(C)CC3)nc2Oc2ccccc2C)c1 [Example 15, 2-(4-Methyl-piperazin-1-yl)-4-o-tolyloxy-pyrimidine-5-carboxylic acid (3,5-dimethyl-benzyl)-methyl-amide]",28.2,–
"Cc1ccccc1Oc1nc(N2CCN(C)CC2)ncc1C(=O)NCc1cc(Cl)cc(Cl)c1 [Example 19, 2-(4-Methyl-piperazin-1-yl)-4-o-tolyloxy-pyrimidine-5-carboxylic acid 3,5-dichloro-benzylamide]",195,–
"Cc1ccccc1Oc1nc(OCCN2CCOCC2)ncc1C(=O)N(C)Cc1cc(C(F)(F)F)cc(C(F)(F)F)c1 [Example 7, 2-(2-Morpholin-4-yl-ethoxy)-4-o-tolyloxy-pyrimidine-5-carboxylic acid (3,5-bis-trifluoromethyl-benzyl)-methyl-amide]",4.68,–
"COc1cc(CN(C)C(=O)c2cnc(N3CCN(C)CC3)nc2Oc2ccccc2C)cc(OC)c1 [Example 11, 2-(4-Methyl-piperazin-1-yl)-4-o-tolyloxy-pyrimidine-5-carboxylic acid (3,5-dimethoxy-benzyl)-methyl-amide]",170,–
"Cc1ccccc1Oc1nc(N2CCSCC2)ncc1C(=O)N(C)Cc1cc(C(F)(F)F)cc(C(F)(F)F)c1 [Example 44, 2-Thiomorpholin-4-yl-4-o-tolyloxy-pyrimidine-5-carboxylic acid (3,5-bis-trifluoromethyl-benzyl)-methyl-amide]",20,–
"Cc1ccccc1Oc1nc(N2CCN(C)CC2)ncc1C(=O)N(C)Cc1cc(C(F)(F)F)cc(C(F)(F)F)c1 [Example 4, 2-(4-Methyl-piperazin-1-yl)-4-o-tolyloxy-pyrimidine-5-carboxylic acid (3,5-bis-trifluoromethyl-benzyl)-methyl-amide]",2.88,–
"4-(2-Methoxy-phenoxy)-2-(4-methyl-piperazin-1-yl)-pyrimidine-5-carboxylic acid (3,5-bis-trifluoromethyl-benzyl)-methyl-amide [Example 29]",–,6.50
"Cc1ccccc1Oc1nc(-c2ccncc2)ncc1C(=O)N(C)Cc1cc(C(F)(F)F)cc(C(F)(F)F)c1 [Example 39, 2-Pyridin-4-yl-4-o-tolyloxy-pyrimidine-5-carboxylic acid (3,5-bis-trifluoromethyl-benzyl)-methyl-amide]",16.2,–

# The remaining lines, values ahead:
Ki [nM],pKi,Compound
0.794,–,"Cc1ccccc1Oc1nc(OCCN2CCOCC2)ncc1N(C)C(=O)C(C)(C)c1cc(C(F)(F)F)cc(C(F)(F)F)c1 [Example 52, 2-(3,5-Bis-trifluoromethyl-phenyl)-N-methyl-N-[2-(2-morpholin-4-yl-ethoxy)-4-o-tolyloxy-pyrimidin-5-yl]-isobutyramide]"
0.912,–,"Cc1ccccc1Oc1nc(N2CCN(C)CC2)ncc1N(C)C(=O)C(C)(C)c1cc(C(F)(F)F)cc(C(F)(F)F)c1 [Example 49, 2-(3,5-Bis-trifluoromethyl-phenyl)-N-methyl-N-[2-(4-methyl-piperazin-1-yl)-4-o-tolyloxy-pyrimidin-5-yl]-isobutyramide]"
32.4,–,"Cc1ccccc1Oc1nc(-c2ccccc2)ncc1N(C)C(=O)C(C)(C)c1cc(C(F)(F)F)cc(C(F)(F)F)c1 [Example 73, 2-(3,5-Bis-trifluoromethyl-phenyl)-N-methyl-N-(2-phenyl-4-o-tolyloxy-pyrimidin-5-yl)-isobutyramide]"
9.55,–,"CN(C)CCCOc1ncc(N(C)C(=O)C(C)(C)c2cc(C(F)(F)F)cc(C(F)(F)F)c2)c(Oc2ccc(F)cc2)n1 [Example 63, 2-(3,5-Bis-trifluoromethyl-phenyl)-N-[2-(3-dimethylamino-propoxy)-4-(4-fluoro-phenoxy)-pyrimidin-5-yl]-N-methyl-isobutyramide]"

# From patent US6787539B2, “2,4,5,-trisubstituted pyrimidine derivatives” (Hoffmann-La Roche Inc., priority 2000, dated 2004)
